For assay [1], the system named is phosphorylation of Histone H3. As to the kind of experiment: HeLa cell 1-hour phospho-histone assay. The assay is classed as cell-based. Particulars: Homo sapiens, HeLa, 1 h, HeLa cells, 1 hour; average; given as class symbols; read-out: pHH3 EC50_IP (Avg). The procedure:
HeLa cell 1-hour phospho-histone assay
The purpose of this assay is to test the inhibitory effect of Aurora compounds with respect to phosphorylation of Histone H3 in the cellular context. HeLa cells (9x10^4/well) are plated in black 96-well flat-bottom tissue culture plates and incubated for 40 hours prior to compound addition. Compounds are serially diluted in DMSO, followed by dilution into MEM containing […] HEPES; 10ul/well of diluted compounds are added to cells (0.5% DMSO final). Cells are incubated for 1 hour at 37 °C in 5% CO2. Cells are then fixed with 3.7% formaldehyde for 10 minutes, washed with wash buffer (1% goat serum and 0.1% Tween 20 in PBS), then permeabilized with 0.5% Triton X in PBS for 15 minutes. After washing with wash buffer, cells are incubated with primary antibody (Upstate #06-507 anti-phospho-histone (Ser 10) antibody (pHH3) for 1 hour at 10ug/ml. After 2 washes with wash buffer, cells are incubated with secondary antibody (Molecular Probes #A11034 goat anti-rabbit Alexa-488 for 1 hour at 1ug/ml + Hoechst 33342 nuclear dye at 1ug/ml (Molecular Probes). Cells are washed 2 times with wash buffer, and buffer replaced with PBS. Plates are scanned on the Cellomics Array Scan (6 fields, ~2000 cells/well) and % of cells that are pHH3 positive were calculated using the Cellomics algorithm.

Assay [2] addresses T1, AuroraA-TPX2 (Homo sapiens, UniProt O14965).
T1 construct: 20 µL of AuroraA-TPX2 KD GST; GST
T1 sequence (O14965 133-383 limits assumed): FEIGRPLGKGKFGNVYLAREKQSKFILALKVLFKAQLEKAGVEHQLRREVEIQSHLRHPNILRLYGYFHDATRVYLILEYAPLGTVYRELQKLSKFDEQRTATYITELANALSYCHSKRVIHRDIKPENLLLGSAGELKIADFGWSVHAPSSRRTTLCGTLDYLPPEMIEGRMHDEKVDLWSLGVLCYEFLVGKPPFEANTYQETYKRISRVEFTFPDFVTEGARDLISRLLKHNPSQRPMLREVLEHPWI
T1 sequence (Q9ULW0 1-43 partner limits assumed): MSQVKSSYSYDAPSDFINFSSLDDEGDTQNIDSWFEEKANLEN
The assay can be described thus: AuroraA-TPX2 Homogeneous Time Resolved Fluorescent (HTRF) kinase assay. In kind it is biochemical. Particulars: average, read-out: AurA/TP X2_ IC50_IP (Avg). In a few lines: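 HTRF read-out: europium anti-phosphoPLK antibody (0.02 nM) plus streptavidin-APC detect phosphorylated biotin-PLK after EDTA stop and overnight equilibration. Kinase step runs about 120 min with Aurora-A/TPX2, ATP and roughly 1 µM PLK peptide at pH 7.5 HEPES buffer with Mg2+ and DTT.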
In general terms: In TR-FRET formats the signal depends on donor and acceptor labels being close together.

Assay [3] addresses T2, AuroraB (Homo sapiens, UniProt Q96GD4).
T2 construct: 20 µL of AuroraB FL His; His
The assay can be described thus: AuroraB Homogeneous Time Resolved Fluorescent (HTRF) kinase assay. Particulars: average, read-out: AurB_ _IC50_IP (Avg). In kind it is biochemical. The method, boiled down: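 HTRF read-out: after EDTA stop and ~60 min with europium anti-phospho-H3 antibody and streptavidin-APC, 655/615 nm ratio reports phosphorylation. Reaction: 400 pM AuroraB FL His, 23 µM ATP (at Km(app)), 0.1 µM biotin-Histone H3 peptide, 50 mM HEPES pH 7.5, MgCl/MnCl, ~90 min.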

The mark [4] stands for this setting: given as numbers, unit inferred.

Like-named read-outs stand apart in the source and are kept apart here.

T2 sequence (Q96GD4 whole entry): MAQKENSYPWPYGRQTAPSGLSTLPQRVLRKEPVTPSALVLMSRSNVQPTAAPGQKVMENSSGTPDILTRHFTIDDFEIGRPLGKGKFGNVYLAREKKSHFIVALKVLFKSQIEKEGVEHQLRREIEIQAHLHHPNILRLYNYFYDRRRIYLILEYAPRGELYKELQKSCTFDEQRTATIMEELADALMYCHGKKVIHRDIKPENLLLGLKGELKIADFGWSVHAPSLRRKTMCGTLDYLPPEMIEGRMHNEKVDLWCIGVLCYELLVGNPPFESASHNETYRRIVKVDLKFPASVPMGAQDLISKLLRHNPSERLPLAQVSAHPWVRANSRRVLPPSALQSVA

`Cc1cc(-c2ccccc2)nnc1Nc1ccc(Oc2ncccc2-c2ccnc(NCCCO)n2)cc1` [compound 429, 3-((4-(2-((4-((4-methyl-6-phenyl-3-pyridazinyl)amino)phenyl)oxy)-3-pyridinyl)-2-pyrimidinyl)amino)-1-propanol]: in assay [1], the EC50 lay within 100 to 500 nM.

Turning to `COc1cccc(-c2nnc(Nc3ccc(Oc4ncccc4-c4c[nH]nc4N)cc3)c3ccccc23)c1` [compound 317, N-(4-((3-(3-amino-1H-pyrazol-4-yl)-2-pyridinyl)oxy)phenyl)-4-(3-(methyloxy)phenyl)-1-phthalazinamine], the IC50 in assay [2] (given as class symbols) and in assay [3] (given as class symbols) was at most 100 nM each time.

For the compound `Nc1nccc(-c2cccnc2Oc2ccc(Nc3nnc(-c4ccccc4O)c4ccccc34)cc2)n1` [compound 364, 2-(4-((4-((3-(2-amino-4-pyrimidinyl)-2-pyridinyl)oxy)phenyl)amino)-1-phthalazinyl)phenol], the figures for the IC50 in assay [2] (given as class symbols) and in assay [3] (given as class symbols) were 100 to 500 nM and at most 100 nM, respectively.

`Cc1csc(-c2nnc(Nc3ccc(Oc4ncccc4-c4ccnc5c4CCCN5)cc3)c3ccccc23)n1` [compound 284, 4-(4-methyl-1,3-thiazol-2-yl)-N-(4-((3-(5,6,7,8-tetrahydro-1,8-naphthyridin-4-yl)-2-pyridinyl)oxy)phenyl)-1-phthalazinamine]: the values for the IC50 in assay [2] (setting [4]) and in assay [3] (setting [4]) were 167 nM and 191 nM, respectively.

As for `Cc1ccc(-c2nnc(Nc3ccc(Oc4ncccc4-c4ccnc(N)n4)nc3)c3ccccc23)nc1` [compound 289, N-(6-((3-(2-amino-4-pyrimidinyl)-2-pyridinyl)oxy)-3-pyridinyl)-4-(5-methyl-2-pyridinyl)-1-phthalazinamine], the IC50 in assay [2] (setting [4]) was determined as 24.1 nM; in assay [3] (setting [4]) it was 1.9 nM.

Take `FC1(F)CCCN(CCCNc2nccc(-c3cccnc3Oc3ccc(Nc4nnc(-c5ccccc5)c5ccccc45)cc3)n2)C1` [compound 453, N-(4-((3-(2-((3-(3,3-difluoro-1-piperidinyl)propyl)amino)-4-pyrimidinyl)-2-pyridinyl)oxy)phenyl)-4-phenyl-1-phthalazinamine]: the IC50 in assay [2] (given as class symbols) and in assay [3] (given as class symbols) was at most 100 nM throughout.

For the compound `CN1C[C@@H]2C[C@H]1CN2c1nnc(Nc2ccc(Oc3ncccc3-c3ccnc(N)n3)cc2)c2ccccc12` [compound 258, N-(4-((3-(2-amino-4-pyrimidinyl)-2-pyridinyl)oxy)phenyl)-4-((1S,4S)-5-methyl-2,5-diazabicyclo[2.2.1]hept-2-yl)-1-phthalazinamine], the IC50 fell in the range of 500 to 2500 nM in assay [2] (given as class symbols) and 100 to 500 nM in assay [3] (given as class symbols).

For the compound `Cc1csc(-c2nnc(Nc3ccc(Oc4ncccc4-c4ccnc(NCCCO)n4)cc3)c3ccccc23)n1` [compound 359, 3-((4-(2-((4-((4-(4-methyl-1,3-thiazol-2-yl)-1-phthalazinyl)amino)phenyl)oxy)-3-pyridinyl)-2-pyrimidinyl)amino)-1-propanol], the IC50 in assay [2] (given as class symbols) and in assay [3] (given as class symbols) was at most 100 nM throughout.

As for `Cc1csc(-c2nnc(Nc3ccc(Oc4ncccc4-c4c[nH]nc4N)c(F)c3)c3ccccc23)n1` [compound 312, N-(4-((3-(3-amino-1H-pyrazol-4-yl)-2-pyridinyl)oxy)-3-fluorophenyl)-4-(4-methyl-1,3-thiazol-2-yl)-1-phthalazinamine], the IC50 in assay [2] (given as class symbols) and in assay [3] (given as class symbols) was at most 100 nM in each case.

For the compound `Cc1ccnc(-c2nnc(Nc3ccc(Oc4ncccc4-c4ccnc(NCCCN5CCN(C)CC5)n4)cc3)c3ccccc23)c1` [compound 409, N-(4-((3-(2-((3-(4-methyl-1-piperazinyl)propyl)amino)-4-pyrimidinyl)-2-pyridinyl)oxy)phenyl)-4-(4-methyl-2-pyridinyl)-1-phthalazinamine], the IC50 is 100 to 500 nM in assay [2] (given as class symbols) and at most 100 nM in assay [3] (given as class symbols).

For `COc1ccc(F)c(-c2nnc(Nc3ccc(Oc4ncccc4-c4ccnc(N)n4)nc3)c3ccccc23)c1` [compound 376, N-(6-((3-(2-amino-4-pyrimidinyl)-2-pyridinyl)oxy)-3-pyridinyl)-4-(2-fluoro-5-(methyloxy)phenyl)-1-phthalazinamine], the IC50 in assay [2] (given as class symbols) and in assay [3] (given as class symbols) was at most 100 nM in each case.

Take `Cc1ccnc(-c2nnc(Nc3ccc(Oc4ncccc4-c4ccnc(N)n4)cc3)c3ccccc23)c1` [compound 404, N-(4-((3-(2-amino-4-pyrimidinyl)-2-pyridinyl)oxy)phenyl)-4-(4-methyl-2-pyridinyl)-1-phthalazinamine]: the values for the IC50 in assay [2] (given as class symbols) and in assay [3] (given as class symbols) were 100 to 500 nM and at most 100 nM, respectively.

For the compound `Nc1nccc(-c2cccnc2Oc2ccc(Nc3nnc(-c4cccc(O)c4)c4ccccc34)cn2)n1` [compound 363, 3-(4-((6-((3-(2-amino-4-pyrimidinyl)-2-pyridinyl)oxy)-3-pyridinyl)amino)-1-phthalazinyl)phenol], the IC50 in assay [2] (given as class symbols) and in assay [3] (given as class symbols) was at most 100 nM throughout.

Turning to `Nc1nccc(-c2cccnc2Oc2ccc(Nc3nnc(-c4ccccc4CO)c4ccccc34)cc2)n1` [compound 384, (2-(4-((4-((3-(2-amino-4-pyrimidinyl)-2-pyridinyl)oxy)phenyl)amino)-1-phthalazinyl)phenyl)methanol], the IC50 in assay [2] (given as class symbols) and in assay [3] (given as class symbols) was at most 100 nM each time.

On to `c1ccc(-c2nnc(Nc3ccc(Oc4ncccc4-c4ccnc(NCCCN5CCCCC5)n4)nc3)c3ccccc23)cc1` [compound 267, 4-phenyl-N-(6-((3-(2-((3-(1-piperidinyl)propyl)amino)-4-pyrimidinyl)-2-pyridinyl)oxy)-3-pyridinyl)-1-phthalazinamine], for which the values for the IC50 in assay [2] (setting [4]) and in assay [3] (setting [4]) were 96.4 nM and 10.4 nM, respectively.

On to `Cc1cc(-c2ccccc2)nnc1Nc1ccc(Oc2ncccc2-c2ccnc3c2CCCN3)cc1` [compound 285, 4-methyl-6-phenyl-N-(4-((3-(5,6,7,8-tetrahydro-1,8-naphthyridin-4-yl)-2-pyridinyl)oxy)phenyl)-3-pyridazinamine], for which the IC50 in assay [2] (given as class symbols) lay within 500 to 2500 nM; in assay [3] (given as class symbols) it was 100 to 500 nM.

`CS(=O)(=O)c1cccc(-c2nnc(Nc3ccc(Oc4ncccc4-c4ccnc(N)n4)cc3)c3ccccc23)c1` [compound 316, N-(4-((3-(2-amino-4-pyrimidinyl)-2-pyridinyl)oxy)phenyl)-4-(3-(methylsulfonyl)phenyl)-1-phthalazinamine]: the IC50 in assay [2] (given as class symbols) and in assay [3] (given as class symbols) was at most 100 nM in each case.

As to `CC1CN(CCCNc2nccc(-c3cccnc3Oc3ccc(Nc4nnc(-c5ccccc5)c5ccccc45)cc3)n2)CC(C)O1` (centres unmarked) [compound 326, N-(4-((3-(2-((3-(2,6-dimethyl-4-morpholinyl)propyl)amino)-4-pyrimidinyl)-2-pyridinyl)oxy)phenyl)-4-phenyl-1-phthalazinamine], the IC50 in assay [2] (given as class symbols) and in assay [3] (given as class symbols) was at most 100 nM in each case.

As to `C[C@H]1CN(CCCNc2nccc(-c3cccnc3Oc3ccc(Nc4nnc(-c5ccccc5)c5ccccc45)cc3)n2)[C@@H](C)CO1` [compound 328, N-(4-((3-(2-((3-((2S,5S)-2,5-dimethyl-4-morpholinyl)propyl)amino)-4-pyrimidinyl)-2-pyridinyl)oxy)phenyl)-4-phenyl-1-phthalazinamine], the results for the IC50 in assay [2] (setting [4]) and in assay [3] (setting [4]) were 65 nM and 4.3 nM, respectively.

As for `Cc1csc(-c2nnc(Nc3ccc(Oc4ncccc4-c4ccnc5c4CCN5)cc3)c3ccccc23)n1` [compound 288, N-(4-((3-(2,3-dihydro-1H-pyrrolo[2,3-b]pyridin-4-yl)-2-pyridinyl)oxy)phenyl)-4-(4-methyl-1,3-thiazol-2-yl)-1-phthalazinamine], the IC50 in assay [2] (given as class symbols) was at most 100 nM; in assay [3] (given as class symbols), 500 to 2500 nM.

For `Nc1nccc(-c2cccnc2Oc2ccc(Nc3nnc(-c4cccc(OC(F)(F)F)c4)c4ccccc34)cn2)n1` [compound 378, N-(6-((3-(2-amino-4-pyrimidinyl)-2-pyridinyl)oxy)-3-pyridinyl)-4-(3-((trifluoromethyl)oxy)phenyl)-1-phthalazinamine], the IC50 in assay [2] (given as class symbols) and in assay [3] (given as class symbols) was at most 100 nM throughout.
